In patent US12024518B1, “Pyrazolo[4,3-C][1,6]naphthyridines as CK2 inhibitors” (KING FAISAL UNIVERSITY, priority 2023, dated 2024):

Tests used:
PC3 (prostate) = assay: In vitro cytotoxic activity (MTT) assay, PC3; assay type: cell-based; conditions: Homo sapiens; PC3 (prostate) cells, exposed for 96 hours, 50% inhibition of cell proliferation; read-out: Cytotoxicity activity IC50
Method: (§1) Compounds 1-16 were screened for their in vitro cytotoxic activity utilizing a 3-(4,5-dimethyl-thiazol-2-yl)-2,5-diphenyltetrazolium bromide (MTT) assay against selected cancer human cell lines consisting of PC3 (prostate), HCT116 (colon), A375 (melanoma), H1299 (lung), MIAPaCa-2 (pancreas), HL60 (leukemia), MCF7 (breast), MDA-MB-231 (breast) (T. Mosmann, J. Immunol. Meth., 1983, 65, 55-63). The cells were cultured at 37° C. in RMPI1640 medium supplemented with 10% fetal bovine serum, 50 IU/mL penicillin, and 50 μg/mL streptomycin in a 5% CO2 incubator. All cells were sub-cultured 3 times/week by trypsinisation. Viable cells were seeded and allowed to adhere for 12 hours before a test drug was added in 96-well plates at an initial density of 1.0×10^5 cells/mL. Tumor cell lines were separately exposed to various concentrations of the tested compounds followed by incubation at a temperature of 37° C. during 96 hours inside a medium of fresh RMPI 1640. Cells were subsequently incubated at 37° C. using MTT at 0.5 mg/mL during 4 hours. After removal of supernatant, formazan crystals were dissolved in isopropanol and the optical density was measured at 570 nm. CX-4945 was used as a positive control.

HCT116 (colon) = assay: In vitro cytotoxic activity (MTT) assay, HCT116; assay type: cell-based; conditions: Homo sapiens, HCT-116; HCT116 (colon) cells, exposed for 96 hours, 50% inhibition of cell proliferation; read-out: Cytotoxicity activity IC50
Method: as §1

A375 (melanoma) = assay: In vitro cytotoxic activity (MTT) assay, A375; assay type: cell-based; conditions: Homo sapiens, A-375; A375 (melanoma) cells, exposed for 96 hours, 50% inhibition of cell proliferation; read-out: Cytotoxicity activity IC50
Method: as §1

H1299 (lung) = assay: In vitro cytotoxic activity (MTT) assay, H1299; assay type: cell-based; conditions: Homo sapiens, NCI-H1299; H1299 (lung) cells, exposed for 96 hours, 50% inhibition of cell proliferation; read-out: Cytotoxicity activity IC50
Method: as §1

MIAPaCa-2 (pancreas) = assay: In vitro cytotoxic activity (MTT) assay, MIAPaCa-2; assay type: cell-based; conditions: Homo sapiens, MIA PaCa-2; MIAPaCa-2 (pancreas) cells, exposed for 96 hours, 50% inhibition of cell proliferation; read-out: Cytotoxicity activity IC50
Method: as §1

HL60 (leukemia) = assay: In vitro cytotoxic activity (MTT) assay, HL60; assay type: cell-based; conditions: Homo sapiens, HL-60; HL60 (leukemia) cells, exposed for 96 hours, 50% inhibition of cell proliferation; read-out: Cytotoxicity activity IC50
Method: as §1

MCF7 (breast) = assay: In vitro cytotoxic activity (MTT) assay, MCF7; assay type: cell-based; conditions: Homo sapiens; MCF7 (breast) cells, exposed for 96 hours, 50% inhibition of cell proliferation; read-out: Cytotoxicity activity IC50
Method: as §1

MDA-MB-231 (breast) = assay: In vitro cytotoxic activity (MTT) assay, MDA-MB-231; assay type: cell-based; conditions: Homo sapiens; MDA-MB-231 (breast) cells, exposed for 96 hours, 50% inhibition of cell proliferation; read-out: Cytotoxicity activity IC50
Method: as §1

[1] = target: T1, recombinant human CK2 (RRββ-holoenzyme) (Homo sapiens, UniProt P68400); assay: CK2 Kinase Assay (33P-ATP, substrate peptide RRRDDDSDDD); assay type: biochemical; conditions: final ATP concentration 15 μM, 10 min at 30° C., eight concentrations; read-out: protein kinase CK2 inhibition IC50
T1 construct: purchased Millipore
Method: CK2 Kinase Assay was conducted using the protocol as described in Pierre F. et al; J. Med. Chem. 2011, 54, 635-654. The tested compounds in aqueous solution were added at a volume of 10 μL to a reaction mixture comprising 10 μL of assay dilution buffer (ADB; 20 mM MOPS, pH 7.2, 25 mM β-glycerol phosphate, 5 mM EGTA, 1 mM sodium orthovanadate, and 1 mM dithiothreitol), 10 μL of substrate peptide (RRRDDDSDDD, dissolved in ADB at a concentration of 1 mM), 10 μL of recombinant human CK2 (RRββ-holoenzyme, 25 ng dissolved in ADB; Millipore). Reactions were initiated by the addition of 10 μL of ATP solution (90% 75 mMMgCl2, 75 μM ATP (final ATP concentration: 15 μM) dissolved in ADB; 10% [γ-33P] ATP (stock 1 mCi/100 μL; 3000 Ci/mmol (Perkin-Elmer) and maintained for 10 min at 30° C. The reactions were quenched with 100 μL of 0.75% phosphoric acid and then transferred to and filtered through a phosphor cellulose filter plate (Millipore). After washing each well five times with 0.75% phosphoric acid, the plate was dried under vacuum for 5 min and, following the addition of 15 μL of scintillation fluid to each well, the residual radioactivity was measured using a Wallac luminescence counter. The IC50 values were derived from eight concentrations of test inhibitors.

T1 sequence (P68400 whole entry): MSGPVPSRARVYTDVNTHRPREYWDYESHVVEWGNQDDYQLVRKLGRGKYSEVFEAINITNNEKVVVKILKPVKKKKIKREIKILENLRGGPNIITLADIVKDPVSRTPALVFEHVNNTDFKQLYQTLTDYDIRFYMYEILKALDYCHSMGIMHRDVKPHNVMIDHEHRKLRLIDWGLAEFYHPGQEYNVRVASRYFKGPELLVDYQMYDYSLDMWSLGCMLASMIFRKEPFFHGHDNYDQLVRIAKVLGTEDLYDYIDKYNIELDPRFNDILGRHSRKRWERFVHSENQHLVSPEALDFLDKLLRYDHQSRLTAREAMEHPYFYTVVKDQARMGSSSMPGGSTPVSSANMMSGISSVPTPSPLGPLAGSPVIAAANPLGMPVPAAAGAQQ
T1 sequence (P67870 whole entry partner): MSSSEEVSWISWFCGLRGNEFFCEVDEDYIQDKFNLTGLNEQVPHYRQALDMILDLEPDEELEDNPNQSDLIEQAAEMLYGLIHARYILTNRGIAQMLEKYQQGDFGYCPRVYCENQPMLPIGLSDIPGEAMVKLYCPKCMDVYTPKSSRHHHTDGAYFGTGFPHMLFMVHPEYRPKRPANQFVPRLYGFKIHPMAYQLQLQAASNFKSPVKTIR

- IC50 [1]: 0.048 µM
Structure (SMILES): O=C(O)c1n[nH]c2c1c(Nc1cccc(Cl)c1)nc1ccncc12 [Compound 1, 4-((3-chlorophenyl)amino)-1H-pyrazolo[4,3-c][1,6]naphthyridine-3-carboxylic acid]
- IC50 (PC3 (prostate)): 2.5 µM
- IC50 (HCT116 (colon)): 1.7 µM
- IC50 (A375 (melanoma)): 3.8 µM
- IC50 (H1299 (lung)): 1.9 µM
- IC50 (MIAPaCa-2 (pancreas)): 1.4 µM
- IC50 (HL60 (leukemia)): 2.9 µM
- IC50 (MCF7 (breast)): 6.3 µM
- IC50 (MDA-MB-231 (breast)): 5.8 µM
